In patent US20200205406A1, “MICROBIOCIDAL PHENYLAMIDINE DERIVATIVES WITH IMPROVED PLANT SAFETY PROPERTIES” (SYNGENTA PARTICIPATIONS AG, priority 2017, published 2020) one finds melting point data, which are given here for 1 compound.

In general, melting point refers to the temperature, or range, at which the solid turns liquid.

Turning to `CCN(C)C=Nc1cc(OC)c(Oc2ccccc2)cc1C`, the melting point was 59 to 60 °C.
